According to paper PMC5307958 (Scientific Reports, 2017):
Entries after “also recorded” stand apart in the source; their conditions may differ. Where a SMILES comes first, the peptide text is derived from it. Bridges are numbered along the chain shown (N, C = ends).

Tests used:
[1] = system: auditory nerve and generators caudal to the IC; assay: Auditory brainstem responses (ABR); type: in vivo, mouse
Method: The temperature was maintained near 25 °C.
ABR recordings were acquired after the mice were anesthetized with ketamine (120 mg/kg) and xylazine (10 mg/kg) I.P., and respiration was monitored throughout to determine when additional supplemental doses were needed. Body temperature was kept constant at 37 °C using a feedback controlled heating pad (Physitemp TCAT2-LV Controller, Clifton, NJ). Stimuli and recordings were generated digitally and controlled using a TDT RZ6 Multi-I/O Processor and their BioSig/SigGen software. Acoustic signals were played through a multi-field (MF1) magnetic speaker (TDT, Alachua, FL) with a total harmonic distortion < = 1% from 1 kHz to 50 kHz, centered 0° azimuth in regards to the animal at a distance of 10 cm from the ear pinna. Tone bursts were presented at frequencies of 6, 12, 16, 20, 24, and 36 kHz (3 ms duration, 1 ms rise/fall time, alternating polarity) at a rate of 29 per second, attenuated in 5 dB steps from 80 dB SPL to 15 dB below threshold or 5 dB SPL, whichever was lower. Threshold was determined by visual inspection as the lowest intensity level which produced a defined wave in both replicates. All signals were calibrated using a Larsen Davis preamplifier, model 2221, with a 1/4″ microphone and a Larson Davis CAL200 Precision Acoustic Calibrator (PCB Piezotronics, Inc., Depew, NY). ABR recordings were acquired using a TDT RA4LI low-impedance digital headstage and RA4PA Medusa preamp with the active (noninverting) electrode inserted at the vertex, the reference (inverting) electrode below the left ear, and the ground electrode below the right ear. The responses were amplified (20×), filtered (300 Hz–3 kHz), and averaged using BioSig software and the System III hardware (TDT) data-acquisition system. A total of 256 tone burst signal and 150 GIN signal recordings were replicated for each acquisition, and muscle artifacts exceeding 7 μV were rejected from the averaged response. All recordings took place in a soundproof booth lined with echo-attenuating acoustic foam. ABR waveforms were analyzed using a custom MatLab program that automatically determined peak latencies and amplitudes in combination with secondary verification by an experimenter blind to the treatment group.

[2] = target: T1, human BKα channel (ZERO isoform) expressed in HEK293 cells (Homo sapiens, UniProt Q12791); assay: Patch-clamp recording, inside-out patches, extracellular application; type: cell-based
T1 construct: expressed in transfected cells; host or cells: HEK293 (ATCC), transient transfection with Lipofectamine 2000; EGFP cotransfected as a separate marker
Method: HEK293 cells (ATCC, Manassas, VA) were grown according to standard procedures. Cells were cultured at 37 °C in a 5% CO2 atmosphere in Dulbecco’s modified Eagle’s medium with L-glutamine, sodium pyruvate and 10% fetal bovine serum (Invitrogen). Cell lines were split with trypsin/EDTA in Hanks’ balanced salt solution (Invitrogen) up to 25–30 cycles. For phage display, stable lines stably expressed rSK2 or hBKα ZERO isoform. Cells were transfected (Lipofectamine 2000, Invitrogen) with hGlyRα1 and used 48 hours later. For electrophysiological recordings, cells were transfected with hBKα ZERO isoform. Enhanced green fluorescent protein (EGFP) was cotransfected as a marker. Electrophysiological recordings were made 16–72 h after transfection. Although the profile of BK channel composition varies from tissue to tissue, the ZERO BK channel splice variant is widely expressed, particularly in the nervous system, serving as a representative form for studying the modulation of BK channel gating.
Voltage-clamp recordings were performed at room temperature (22–24 °C) using an inside-out configuration on patches pulled from HEK293 cells. The extracellular solution contained the following (in mM): 2 KCl, 136 KOH, 20 HEPES, 2 MgCl2, adjusted to pH 7.2 with MeSO3H. In order to apply peptide to the extracellular surface, patch electrodes (7–20 MΩ in resistance) were tip-filled with normal extracellular solution and backfilled with extracellular solution containing LS3. Enough normal extracellular solution was included to provide at least five minutes of peptide-free recording (determined by plotting Po vs. time). The intracellular solution (in the bath) contained the following (in mM): 6 KCl, 132 KOH, 20 HEPES, adjusted to pH 7.2 with MeSO3H. To achieve 750 nM free Ca^2+, […] and 5 mM EGTA were included, a ratio verified by measurement with a Ca^2+-sensitive electrode. Voltage-clamp recordings made with an Axopatch 200 A amplifier and custom macros in IgorPro. Analysis was performed with QUB (http://www.qub.buffalo.edu), including Po, mean open time and three component exponential fits to closed dwell times. Group means±SEM for post-peptide measures were plotted relative to pre-peptide values and compared with pre values via planned paired t-tests.

T1 sequence (Q12791 1-1178 isoform Q12791-5): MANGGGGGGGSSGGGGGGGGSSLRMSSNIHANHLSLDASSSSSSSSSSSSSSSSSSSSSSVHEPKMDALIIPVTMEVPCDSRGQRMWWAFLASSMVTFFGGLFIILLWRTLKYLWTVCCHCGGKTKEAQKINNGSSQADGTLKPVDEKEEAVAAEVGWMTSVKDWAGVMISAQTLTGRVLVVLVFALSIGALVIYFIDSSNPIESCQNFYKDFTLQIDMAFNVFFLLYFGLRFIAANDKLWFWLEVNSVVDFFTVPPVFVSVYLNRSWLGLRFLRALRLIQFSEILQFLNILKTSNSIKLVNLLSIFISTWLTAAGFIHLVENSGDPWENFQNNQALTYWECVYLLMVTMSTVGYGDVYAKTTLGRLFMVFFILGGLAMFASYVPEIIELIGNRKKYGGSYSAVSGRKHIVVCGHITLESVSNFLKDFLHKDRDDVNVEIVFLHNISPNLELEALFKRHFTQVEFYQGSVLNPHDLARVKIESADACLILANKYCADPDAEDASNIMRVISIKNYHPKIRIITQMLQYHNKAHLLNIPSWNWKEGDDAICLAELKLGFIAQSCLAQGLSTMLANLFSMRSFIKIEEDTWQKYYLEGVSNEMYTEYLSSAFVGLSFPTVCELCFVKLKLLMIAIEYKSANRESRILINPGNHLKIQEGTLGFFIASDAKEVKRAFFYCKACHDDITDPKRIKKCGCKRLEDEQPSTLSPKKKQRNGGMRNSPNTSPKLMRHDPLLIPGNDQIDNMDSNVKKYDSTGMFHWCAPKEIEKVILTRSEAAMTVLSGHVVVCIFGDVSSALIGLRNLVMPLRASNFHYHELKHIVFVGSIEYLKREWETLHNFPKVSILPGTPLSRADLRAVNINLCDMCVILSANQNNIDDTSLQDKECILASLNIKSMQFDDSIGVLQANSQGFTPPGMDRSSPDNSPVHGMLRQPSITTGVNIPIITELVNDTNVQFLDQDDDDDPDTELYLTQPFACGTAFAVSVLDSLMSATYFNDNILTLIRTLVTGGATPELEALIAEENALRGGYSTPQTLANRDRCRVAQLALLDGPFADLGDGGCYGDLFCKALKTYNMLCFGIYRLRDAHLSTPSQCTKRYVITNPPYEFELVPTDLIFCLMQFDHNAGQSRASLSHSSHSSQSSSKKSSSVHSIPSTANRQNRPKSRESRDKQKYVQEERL

## CC(C)C[C@@H]1NC(=O)CNC(=O)[C@H](CCCNC(=N)N)NC(=O)[C@H](CCCNC(=N)N)NC(=O)[C@@H](N)CSSC[C@@H](C(=O)O)NC(=O)[C@H](C(C)C)NC(=O)[C@H](CCC(N)=O)NC(=O)[C@H](C(C)C)NC1=O [LS3] (H-CRRGLVQVC-OH; disulfide 1-9; N-terminus and C-terminus assumed)
[1]; 4 hours post I.P. injection vs. baseline, tone bursts
  mean ABR thresholds: No significant effect
[1]; inferred from unaltered ABRs after systemic administration
  activity at cochlear BK channels: not active at cochlear BK channels
[1]; systemic (I.P.) administration
  effect on ABRs / peripheral auditory processing: without altering peripheral auditory processing; also recorded: does not alter ABRs
[1]; systemic (I.P.) injection, 4 hrs vs. baseline, auditory nerve
  ABR peak 1 (P1) amplitude by intensity functions: unaffected; also recorded: Neither BK channel modulator reduced auditory nerve (P1)
[1]; systemic (I.P.) injection, 4 hrs vs. baseline, generators caudal to the IC (brainstem)
  ABR peak 4 (P4) amplitude by intensity functions: unaffected; also recorded: Neither BK channel modulator reduced auditory nerve (P1) or brainstem (P4) amplitudes
[2]; 50 pM LS3, extracellular, any voltage (60–100 mV), 750 nM Ca
  effect on Po (post vs. pre peptide): did not significantly alter the Po
[2]; 500 pM to 500 nM LS3, extracellular, each holding potential 60–100 mV, 750 nM Ca, N = 6–12
  effect on Po (post vs. pre peptide): reduced the Po at each holding potential
[2]; 50 nM LS3 applied to extracellular (external) side, each voltage, p < 0.05, N = 6
  effect on Po (post vs. pre peptide): reduction in Po at each voltage; also recorded: significantly reduce Po at all voltages
[2]; 500 nM LS3, 750 nM Ca, three-component exponential fits, component 0, N = 8
  short closed dwell times: remained unchanged; also recorded: did not change significantly
[2]; 500 nM LS3, 750 nM Ca, three-component exponential fits, component 2, p < 0.05, N = 8
  long closed dwell times: increased; also recorded: lengthened
[2]; 500 nM LS3, 40 mV, p < 0.05
  post Po relative to pre: 0.54 ± 0.17
[2]; 500 nM LS3, 60 mV, pre peptide 282 ± 4.62 pS (remained stable)
  single channel conductance post LS3: 287 ± 5.12 pS
[2]; 500 nM LS3, all holding potentials 60–100 mV, 750 nM Ca, p < 0.05, N = 8
  mean open times: decreasing mean open times at all holding potentials; also recorded: shortened openings
[2]; 60 mV, high picomolar to nanomolar LS3, extracellular, intracellular calcium 750 nM
  reduction of probability of channel opening (Po): ~ 60%
[2]; LS3 vs. known high affinity BK channel toxins / Kv peptide toxins or paxilline
  apparent affinity compared with known blockers: higher than known high affinity BK channel toxins; also recorded: higher apparent affinity than Kv peptide toxins or paxilline
[2]; from change in mean open and closed times, rather than blocking the pore
  mode of action on channel: modulates channel gating
[2]; inside-out patches, peptide applied to extracellular side, intracellular calcium 750 nM, 22–24 °C, approximate, in words
  IC50 for reduction of BK channel open probability (Po): mid-picomolar range
